{
  "source": "paper PMC7089538",
  "about": "“The effects of intra-stomach obestatin administration on intestinal contractility in neonatal piglets fed milk formula” (PLoS ONE, 2020)",
  "key": {"middle jejunum [1]": {"test_system": "middle jejunum", "assay": "Histology: thickness of intestinal muscularis layer", "assay_type": "in vivo, piglets (Polish Landrace x Pietrain)", "conditions": "O15: obestatin 15 μg/kg BW intra-stomach every 8 h, 6 days, H&E histometry, mean ± SEM", "description": "Piglets' BW was recorded every morning. […] The protein concentration in the milk formula was 20%. […] Briefly, the samples were routinely embedded in paraffin and cut into 4.5 μm sections and applied to silane-treated slides. Next, the sections were immersed in xylene for dewaxing and then in descending grades of alcohol for rehydration. The segments were routinely stained using hematoxylin and eosin."}, "duodenum [2]": {"test_system": "duodenum", "conditions": "duodenum strips; for EFS-evoked amplitude of contraction: 6 days, mean ± SEM"}, "middle jejunum [3]": {"test_system": "middle jejunum", "conditions": "middle jejunum strips; for EFS-evoked amplitude of contraction: 6 days, mean ± SEM"}, "duodenum [4]": {"test_system": "duodenum", "assay": "ACh-stimulated or atropine-treated contractions", "assay_type": "in vivo, piglets (Polish Landrace x Pietrain)", "conditions": "6 days, duodenum strips, atropine pretreatment (ATR^-6), mean ± SEM"}, "in vivo": {"assay": "in vivo", "conditions": "male, Polish Landrace x Pietrain, pig, po, obestatin concentration in the blood plasma"}, "[5]": {"conditions": "O2: obestatin 2 μg/kg BW intra-stomach every 8 h, Basal, EFS 0.5 Hz"}, "[6]": {"conditions": "O2: obestatin 2 μg/kg BW intra-stomach every 8 h, Basal, EFS 5 Hz"}, "[7]": {"conditions": "O2: obestatin 2 μg/kg BW intra-stomach every 8 h, Basal, EFS 50 Hz"}, "[8]": {"conditions": "O2: obestatin 2 μg/kg BW intra-stomach every 8 h, TTX 10^−6 M, EFS 0.5 Hz"}, "[9]": {"conditions": "O2: obestatin 2 μg/kg BW intra-stomach every 8 h, TTX 10^−6 M, EFS 5 Hz"}, "[10]": {"conditions": "O2: obestatin 2 μg/kg BW intra-stomach every 8 h, TTX 10^−6 M, EFS 50 Hz"}, "[11]": {"conditions": "O10: obestatin 10 μg/kg BW intra-stomach every 8 h, Basal, EFS 0.5 Hz"}, "[12]": {"conditions": "O10: obestatin 10 μg/kg BW intra-stomach every 8 h, Basal, EFS 5 Hz"}, "[13]": {"conditions": "O10: obestatin 10 μg/kg BW intra-stomach every 8 h, Basal, EFS 50 Hz"}, "[14]": {"conditions": "O10: obestatin 10 μg/kg BW intra-stomach every 8 h, TTX 10^−6 M, EFS 0.5 Hz"}, "[15]": {"conditions": "O10: obestatin 10 μg/kg BW intra-stomach every 8 h, TTX 10^−6 M, EFS 5 Hz"}, "[16]": {"conditions": "O10: obestatin 10 μg/kg BW intra-stomach every 8 h, TTX 10^−6 M, EFS 50 Hz"}, "[17]": {"conditions": "O15: obestatin 15 μg/kg BW intra-stomach every 8 h, Basal, EFS 0.5 Hz"}, "[18]": {"conditions": "O15: obestatin 15 μg/kg BW intra-stomach every 8 h, Basal, EFS 5 Hz"}, "[19]": {"conditions": "O15: obestatin 15 μg/kg BW intra-stomach every 8 h, Basal, EFS 50 Hz"}, "[20]": {"conditions": "O15: obestatin 15 μg/kg BW intra-stomach every 8 h, TTX 10^−6 M, EFS 0.5 Hz"}, "[21]": {"conditions": "O15: obestatin 15 μg/kg BW intra-stomach every 8 h, TTX 10^−6 M, EFS 5 Hz"}, "[22]": {"conditions": "O15: obestatin 15 μg/kg BW intra-stomach every 8 h, TTX 10^−6 M, EFS 50 Hz"}, "[23]": {"conditions": "TTX 10^−6 M, responses similar to saline-treated preparations"}},
  "note": "Where two headings read alike, the source gives them in different places. Marks after values point to notes of the source that are not given here. Where no end group is shown, it is not given here.",
  "data": [
    {"substance": "FNAPFDVGIKLSGAQYQQHGRAL-NH2 [obestatin]", "values": [
      {"measurement": "Thickness of muscularis layer", "setting": "middle jejunum [1]", "result": "66 ± 4^b μm"},
      {"measurement": "EFS-evoked amplitude of contraction", "setting": "duodenum [2]; [5]", "result": "2.53 ± 0.31^a mm"},
      {"measurement": "EFS-evoked amplitude of contraction", "setting": "duodenum [2]; [6]", "result": "2.78 ± 0.35^a mm"},
      {"measurement": "EFS-evoked amplitude of contraction", "setting": "duodenum [2]; [7]", "result": "2.95 ± 0.28^a^c mm"},
      {"measurement": "EFS-evoked amplitude of contraction", "setting": "duodenum [2]; [8]", "result": "0.48 ± 0.11", "unit": "mm"},
      {"measurement": "EFS-evoked amplitude of contraction", "setting": "duodenum [2]; [9]", "result": "0.54 ± 0.11", "unit": "mm"},
      {"measurement": "EFS-evoked amplitude of contraction", "setting": "duodenum [2]; [10]", "result": "0.82 ± 0.21", "unit": "mm"},
      {"measurement": "EFS-evoked amplitude of contraction", "setting": "duodenum [2]; [11]", "result": "1.08 ± 0.26^b mm"},
      {"measurement": "EFS-evoked amplitude of contraction", "setting": "duodenum [2]; [12]", "result": "1.25 ± 0.32^b mm"},
      {"measurement": "EFS-evoked amplitude of contraction", "setting": "duodenum [2]; [13]", "result": "1.20 ± 0.29^a^d mm"},
      {"measurement": "EFS-evoked amplitude of contraction", "setting": "duodenum [2]; [14]", "result": "0.56 ± 0.16", "unit": "mm"},
      {"measurement": "EFS-evoked amplitude of contraction", "setting": "duodenum [2]; [15]", "result": "0.59 ± 0.15", "unit": "mm"},
      {"measurement": "EFS-evoked amplitude of contraction", "setting": "duodenum [2]; [16]", "result": "0.86 ± 0.22", "unit": "mm"},
      {"measurement": "EFS-evoked amplitude of contraction", "setting": "duodenum [2]; [17]", "result": "2.34 ± 0.30^a mm"},
      {"measurement": "EFS-evoked amplitude of contraction", "setting": "duodenum [2]; [18]", "result": "2.74 ± 0.37^a mm"},
      {"measurement": "EFS-evoked amplitude of contraction", "setting": "duodenum [2]; [19]", "result": "3.38 ± 0.36^b^c mm"},
      {"measurement": "EFS-evoked amplitude of contraction", "setting": "duodenum [2]; [20]", "result": "0.40 ± 0.09", "unit": "mm"},
      {"measurement": "EFS-evoked amplitude of contraction", "setting": "duodenum [2]; [21]", "result": "0.46 ± 0.01", "unit": "mm"},
      {"measurement": "EFS-evoked amplitude of contraction", "setting": "duodenum [2]; [22]", "result": "0.77 ± 0.22", "unit": "mm"},
      {"measurement": "effect of obestatin on EFS-evoked contraction following pre-incubation with TTX", "setting": "duodenum [2]; [23]", "result": "the effects of obestatin were blocked"},
      {"measurement": "EFS-evoked amplitude of contraction", "setting": "middle jejunum [3]; [5]", "result": "0.53 ± 0.26^a^c mm"},
      {"measurement": "EFS-evoked amplitude of contraction", "setting": "middle jejunum [3]; [6]", "result": "0.70 ± 0.35^a mm"},
      {"measurement": "EFS-evoked amplitude of contraction", "setting": "middle jejunum [3]; [7]", "result": "1.22 ± 0.59^a mm"},
      {"measurement": "EFS-evoked amplitude of contraction", "setting": "middle jejunum [3]; [8]", "result": "0.17 ± 0.07", "unit": "mm"},
      {"measurement": "EFS-evoked amplitude of contraction", "setting": "middle jejunum [3]; [9]", "result": "0.20 ± 0.08", "unit": "mm"},
      {"measurement": "EFS-evoked amplitude of contraction", "setting": "middle jejunum [3]; [10]", "result": "0.31 ± 0.17", "unit": "mm"},
      {"measurement": "EFS-evoked amplitude of contraction", "setting": "middle jejunum [3]; [11]", "result": "1.75 ± 0.18^a^d mm"},
      {"measurement": "EFS-evoked amplitude of contraction", "setting": "middle jejunum [3]; [12]", "result": "1.75 ± 0.18^a^b mm"},
      {"measurement": "EFS-evoked amplitude of contraction", "setting": "middle jejunum [3]; [13]", "result": "1.49 ± 0.30^a mm"},
      {"measurement": "EFS-evoked amplitude of contraction", "setting": "middle jejunum [3]; [14]", "result": "0.28 ± 0.10", "unit": "mm"},
      {"measurement": "EFS-evoked amplitude of contraction", "setting": "middle jejunum [3]; [15]", "result": "0.30 ± 0.12", "unit": "mm"},
      {"measurement": "EFS-evoked amplitude of contraction", "setting": "middle jejunum [3]; [16]", "result": "0.45 ± 0.15", "unit": "mm"},
      {"measurement": "EFS-evoked amplitude of contraction", "setting": "middle jejunum [3]; [17]", "result": "2.47 ± 0.23^b^d mm"},
      {"measurement": "EFS-evoked amplitude of contraction", "setting": "middle jejunum [3]; [18]", "result": "2.74 ± 0.37^b mm"},
      {"measurement": "EFS-evoked amplitude of contraction", "setting": "middle jejunum [3]; [19]", "result": "3.76 ± 0.29^b mm"},
      {"measurement": "EFS-evoked amplitude of contraction", "setting": "middle jejunum [3]; [20]", "result": "0.46 ± 0.23", "unit": "mm"},
      {"measurement": "EFS-evoked amplitude of contraction", "setting": "middle jejunum [3]; [21]", "result": "0.34 ± 0.11", "unit": "mm"},
      {"measurement": "EFS-evoked amplitude of contraction", "setting": "middle jejunum [3]; [22]", "result": "0.61 ± 0.27", "unit": "mm"},
      {"measurement": "effect of obestatin on EFS-evoked contraction following pre-incubation with TTX", "setting": "middle jejunum [3]; [23]", "result": "the effects of obestatin were blocked"},
      {"measurement": "amplitude of atropine treated contractions", "setting": "duodenum [4]; O10: obestatin 10 μg/kg BW intra-stomach every 8 h", "result": "0.97 ± 0.1", "unit": "mm"},
      {"measurement": "amplitude of atropine treated contractions", "setting": "duodenum [4]; O15: obestatin 15 μg/kg BW intra-stomach every 8 h", "result": "1.0 ± 0.1", "unit": "mm"},
      {"measurement": "level at 0.5 h", "setting": "in vivo; 2 ug/kg BW", "result": "0.369 ± 0.026", "unit": "ng/mL"},
      {"measurement": "level at 1 h", "setting": "in vivo; 2 ug/kg BW", "result": "0.37 ± 0.023", "unit": "ng/mL"},
      {"measurement": "level at 0.5 h", "setting": "in vivo; 10 ug/kg BW", "result": "0.413 ± 0.011", "unit": "ng/mL"},
      {"measurement": "level at 1 h", "setting": "in vivo; 10 ug/kg BW", "result": "0.475 ± 0.022", "unit": "ng/mL"},
      {"measurement": "level at 0.5 h", "setting": "in vivo; 15 ug/kg BW", "result": "0.405 ± 0.026", "unit": "ng/mL"},
      {"measurement": "level at 1 h", "setting": "in vivo; 15 ug/kg BW", "result": "0.45 ± 0.053", "unit": "ng/mL"}
    ]}
  ]
}
